Here are results for two compounds from patent US20180250224A1, “Ophthalmic Drug Compositions” (Oxular Limited, priority 2014, published 2018).

This data set can be described thus: Drug elution in PBS over 0-7 days (HPLC of supernatant). It is filed as physicochemical. As to conditions: 1.2 ml PBS, 37 degrees centigrade, 250 rpm. Here is the method:
The microspheres of Example 7 and the elongated solid composition of Example 8 were tested for drug release. Samples of the Everolimus containing microspheres, averaging 4.0 mg, were placed in Eppendorf tubes with 1.2 ml of phosphate buffered saline (PBS) and suspended with agitation. Samples of the elongated solid composition containing Everolimus of 12 mm length, averaging 0.51 mg were placed in Eppendorf tubes with 1.2 ml of phosphate buffered saline (PBS) and suspended with agitation. For comparison, samples of the drug used to produce the microspheres, averaging 4.1 mg, were also placed in Eppendorf tubes with 1.2 ml of PBS and suspended with agitation. The tubes were incubated at 37 degrees centigrade with mixing at 250 rpm. At time intervals of 0, 1, 2, 4 and 7 days a tube containing sample was centrifuged and the supernatant removed for drug analysis. For each time point, 10 microliters of supernatant was placed into 75:25 acetonitrile and water solvent to solubilize the drug and the resultant drug content was analyzed by HPLC. The HPLC method used a C18 reverse phase column and UV detection and was calibrated to a standard curve of drug. […] In contrast, the Everolimus containing microspheres released drug at a slower rate, with 0.06% of the drug released at 7 days. Similar to the microspheres, the elongated solid composition containing Everolimus released drug at a slow rate, with 0.04% of the drug released at 7 days.
The microspheres of Example 11 and the elongated solid composition of Example 12 were tested for drug release. […] For each time point, 10 microliters of supernatant was placed into 75:25 acetonitrile and water solvent to solubilize the drug and the resultant drug content was analyzed by HPLC. […]
The elongated solid composition of Example 15 was tested for drug release. […] For each time point, 10 microliters of supernatant was placed into 50:50 acetonitrile and methanol solvent to solubilize the drug and the resultant drug content was analyzed by HPLC. […]

The structures appear in SMILES notation.

Regarding `CC1(C)O[C@@H]2C[C@H]3[C@@H]4C[C@H](F)C5=CC(=O)C=C[C@]5(C)[C@@]4(F)[C@@H](O)C[C@]3(C)[C@]2(C(=O)CO)O1` [fluocinolone, fluocinolone acetonide], under “0 days”, the “drug released initially at 0 days (initial burst release)” value came out at 5.3%. For the same compound, the “drug released, average at subsequent time points” value (1, 2, 4 and 7 days) was 0.9%.

With `CO[C@H]1C[C@@H]2CC[C@@H](C)[C@@](O)(O2)C(=O)C(=O)N2CCCC[C@H]2C(=O)O[C@H]([C@H](C)C[C@@H]2CC[C@@H](OCCO)[C@H](OC)C2)CC(=O)[C@H](C)/C=C(\C)[C@@H](O)[C@@H](OC)C(=O)[C@H](C)C[C@H](C)/C=C/C=C/C=C/1C` [Everolimus], the “drug released at 7 days” value (7 days) stood at 0.45%.
